Assays:
[1] = molecular target: Fibroblast growth factor receptor 1 (Homo sapiens, UniProt P11362); assay: Inhibition of recombinant human His-tagged FGFR1 cytoplasmic domain (308 to 731 residues) expressed in baculovirus expression system using tyr 04 as substrate measured within 60 mins by Z-LYTE assay
[2] = molecular target: Fibroblast growth factor receptor 4 (Homo sapiens, UniProt P22455); assay: Inhibition of recombinant human N-terminal His-tagged FGFR4 cytoplasmic domain […] expressed in baculovirus expression system using tyr 04 peptide as substrate measured within 90 mins by Z-LYTE assay
[3] = Stability in mouse plasma assessed as compound remaining at 2 uM measured after 2 hrs by LC-MS/MS analysis; assay type: ADME, cell-free; details: read-out: Stability
[4] = Intrinsic clearance in human liver microsomes at 1 uM measured after 60 mins in presence of NADPH by LC-MS/MS analysis; assay type: ADME, microsome; details: read-out: CLH
[5] = Intrinsic clearance in mouse liver microsomes at 1 uM measured after 60 mins in presence of NADPH by LC-MS/MS analysis; assay type: ADME, microsome; details: read-out: CLH
[6] = Stability in human plasma assessed as compound remaining at 2 uM measured after 2 hrs by LC-MS/MS analysis; assay type: ADME, cell-free; details: read-out: Stability

Fibroblast growth factor receptor 1, sequence (P11362 whole entry, the tested form may be a part): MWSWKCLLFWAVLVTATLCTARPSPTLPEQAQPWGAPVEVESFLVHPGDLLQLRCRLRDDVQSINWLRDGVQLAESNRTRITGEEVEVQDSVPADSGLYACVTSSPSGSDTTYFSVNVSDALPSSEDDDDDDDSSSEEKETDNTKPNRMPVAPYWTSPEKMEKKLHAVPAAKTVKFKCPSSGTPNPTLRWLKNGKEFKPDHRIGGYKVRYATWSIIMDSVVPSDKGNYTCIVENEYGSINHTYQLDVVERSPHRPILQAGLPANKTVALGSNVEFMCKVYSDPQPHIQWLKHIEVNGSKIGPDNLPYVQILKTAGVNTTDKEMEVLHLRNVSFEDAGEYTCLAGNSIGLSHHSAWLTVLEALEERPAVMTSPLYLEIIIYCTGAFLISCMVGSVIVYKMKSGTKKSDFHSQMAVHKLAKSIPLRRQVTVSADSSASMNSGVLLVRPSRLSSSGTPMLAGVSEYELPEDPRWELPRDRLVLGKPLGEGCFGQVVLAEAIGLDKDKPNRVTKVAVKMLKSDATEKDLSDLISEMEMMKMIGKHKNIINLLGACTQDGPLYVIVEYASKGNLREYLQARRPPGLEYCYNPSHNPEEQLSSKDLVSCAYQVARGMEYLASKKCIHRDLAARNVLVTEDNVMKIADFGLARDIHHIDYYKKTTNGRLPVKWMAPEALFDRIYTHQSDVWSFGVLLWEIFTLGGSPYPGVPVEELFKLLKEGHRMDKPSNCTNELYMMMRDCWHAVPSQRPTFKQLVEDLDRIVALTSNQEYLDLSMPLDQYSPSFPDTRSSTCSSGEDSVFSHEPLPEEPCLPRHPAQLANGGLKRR
Fibroblast growth factor receptor 4, sequence (P22455 whole entry, the tested form may be a part): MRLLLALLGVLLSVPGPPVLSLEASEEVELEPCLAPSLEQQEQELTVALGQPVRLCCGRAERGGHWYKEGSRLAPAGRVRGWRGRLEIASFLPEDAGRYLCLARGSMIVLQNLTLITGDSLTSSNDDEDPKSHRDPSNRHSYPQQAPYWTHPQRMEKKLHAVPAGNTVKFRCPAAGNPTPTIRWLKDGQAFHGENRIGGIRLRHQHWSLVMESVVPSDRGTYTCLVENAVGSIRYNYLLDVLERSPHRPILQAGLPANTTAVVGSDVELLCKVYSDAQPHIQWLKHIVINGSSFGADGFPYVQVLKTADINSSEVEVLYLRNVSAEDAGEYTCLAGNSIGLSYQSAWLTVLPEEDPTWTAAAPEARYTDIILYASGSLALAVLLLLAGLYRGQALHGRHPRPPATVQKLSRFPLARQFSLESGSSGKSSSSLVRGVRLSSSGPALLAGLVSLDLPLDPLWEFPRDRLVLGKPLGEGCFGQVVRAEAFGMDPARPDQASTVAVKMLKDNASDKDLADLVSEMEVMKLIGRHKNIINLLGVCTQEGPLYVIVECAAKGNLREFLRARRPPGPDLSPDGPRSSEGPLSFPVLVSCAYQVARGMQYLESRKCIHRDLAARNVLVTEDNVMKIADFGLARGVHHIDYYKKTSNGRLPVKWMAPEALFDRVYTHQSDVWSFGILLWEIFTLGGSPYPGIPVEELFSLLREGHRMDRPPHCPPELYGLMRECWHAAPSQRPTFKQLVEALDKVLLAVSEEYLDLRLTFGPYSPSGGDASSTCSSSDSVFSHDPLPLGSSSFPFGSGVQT

IC50 [1] [µM]	IC50 [2] [µM]	remaining at 2 h, 2 µM [3] [%]	CLint scaled at 1 µM [4] [mL/min/kg]	CLint scaled at 1 µM [5] [mL/min/kg]	remaining at 2 h, 2 µM [6] [%]	SMILES
7.4	3.5					C=CC(=O)N[C@@H]1COC[C@@H]1Nc1ncc(OCc2c(F)c(OC)cc(OC)c2F)cn1
3.3		96	154	2030	96	C=CC(=O)N[C@H]1CCCC[C@H]1Nc1ncc(OCc2c(F)c(OC)cc(OC)c2F)cn1 (racemic)
0.06						C=CC(=O)Nc1ccccc1Nc1ncc(OCc2c(F)c(OC)cc(OC)c2F)cn1
2.9		0.1	120	180		C=CC(=O)Nc1cc(N2CCN(CC)CC2)cc(C)c1Nc1ncc(OCc2c(F)c(OC)cc(OC)c2F)cn1
9.5		0.3	265	220		C=CC(=O)Nc1cc(N2CCN(C(C)=O)CC2)cc(C)c1Nc1ncc(OCc2c(F)c(OC)cc(OC)c2F)cn1
> 10		100	46	564	90	C=CC(=O)N[C@H]1CCOC[C@H]1Nc1ncc(OCc2c(F)c(OC)cc(OC)c2F)cn1

Further lines, the compound ahead of its results:

SMILES	IC50 [1] [µM]	IC50 [2] [µM]	remaining at 2 h, 2 µM [3] [%]	CLint scaled at 1 µM [4] [mL/min/kg]	CLint scaled at 1 µM [5] [mL/min/kg]	remaining at 2 h, 2 µM [6] [%]
C=CC(=O)Nc1cccc(C)c1Nc1ncc(OCc2c(Cl)c(OC)cc(OC)c2Cl)cn1			0.2			
C=CC(=O)Nc1cccc(C)c1Nc1ncc(OC(C)c2c(Cl)c(OC)cc(OC)c2Cl)cn1 (configuration not stated)	> 10	> 10				
C=CC(=O)Nc1cccc(C)c1Nc1ncc(OCc2cc(OC)cc(OC)c2)cn1	> 10					
C=C(C)C(=O)Nc1cc(N2CCN(CC)CC2)cc(C)c1Nc1ncc(OCc2c(F)c(OC)cc(OC)c2F)cn1	4.8		0.4			
